Measurements from the supplement of paper PMC11061612.

Columns and labels:
Carboplatin = compound: C1CC(C1)(C(=O)[O-])C(=O)[O-].N.N.[Pt+2] [Carboplatin]; details: max 10 µM
Method in brief: (§1)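 Cancer cell lines were seeded in 1536-well plates in 7.5 μl DMEM/F12 or RPMI with 10% FBS, held 24 hours at 37°C and 5% CO2, then dosed for 72 hours (final DMSO typically 0.2%). Viability was read by CellTiter-Glo 2.0 luminescence and scaled between blank-well and DMSO-well means. The single-agent IC50 comes from dose responses fitted to a two-parameter logistic curve with a non-linear mixed effects model.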

AZD5363 = compound: C1CN(CCC1(C(=O)N[C@@H](CCO)C2=CC=C(C=C2)Cl)N)C3=NC=NC4=C3C=CN4 [AZD5363]; details: max 10 µM
Method in brief: as §1

AZD1775 = compound: C=CCn1c(=O)c2cnc(Nc3ccc(N4CCN(C)CC4)cc3)nc2n1-c1cccc(C(C)(C)O)n1 [AZD1775]; details: max 3 µM
Method in brief: as §1

Trametinib = compound: CC(=O)Nc1cccc(-n2c(=O)n(C3CC3)c(=O)c3c(Nc4ccc(I)cc4F)n(C)c(=O)c(C)c32)c1 [Trametinib]; details: max 1 µM
Method in brief: as §1

Paclitaxel = compound: CC(=O)O[C@H]1C(=O)[C@@]2(C)[C@H]([C@H](OC(=O)c3ccccc3)[C@]3(O)C[C@H](OC(=O)[C@H](O)[C@@H](NC(=O)c4ccccc4)c4ccccc4)C(C)=C1C3(C)C)[C@]1(OC(C)=O)CO[C@@H]1C[C@@H]2O [Paclitaxel]; details: max 3 µM
Method in brief: as §1

Palbociclib = compound: CC(=O)c1c(C)c2cnc(Nc3ccc(N4CCNCC4)cn3)nc2n(C2CCCC2)c1=O [Palbociclib]; details: max 10 µM
Method in brief: as §1

AZD1390 = compound: CC(C)n1c(=O)n(C)c2cnc3cc(F)c(-c4ccc(OCCCN5CCCCC5)nc4)cc3c21 [AZD1390]; details: max 0.3 µM
Method in brief: as §1

Venetoclax = compound: CC1(C)CCC(CN2CCN(c3ccc(C(=O)NS(=O)(=O)c4ccc(NCC5CCOCC5)c([N+](=O)[O-])c4)c(Oc4cnc5[nH]ccc5c4)c3)CC2)=C(c2ccc(Cl)cc2)C1 [Venetoclax]; details: max 1 µM
Method in brief: as §1

Dasatinib = compound: CC1=C(C(=CC=C1)Cl)NC(=O)C2=CN=C(S2)NC3=CC(=NC(=N3)C)N4CCN(CC4)CCO [Dasatinib]; details: max 2 µM
Method in brief: as §1

SG3199 = compound: CC1=CN2[C@@H](C1)C=NC3=CC(=C(C=C3C2=O)OC)OCCCCCOC4=C(C=C5C(=C4)N=C[C@@H]6CC(=CN6C5=O)C)OC [SG3199]; details: max 0.001 µM
Method in brief: as §1

AZD2811 = compound: CCN(CCO)CCCOc1ccc2c(Nc3cc(CC(=O)Nc4cccc(F)c4)[nH]n3)ncnc2c1 [AZD2811]; details: max 1 µM
Method in brief: as §1

SN-38 = compound: CCc1c2c(nc3ccc(O)cc13)-c1cc3c(c(=O)n1C2)COC(=O)[C@]3(O)CC [SN-38]; details: max 0.3 µM
Method in brief: as §1

AZD0156 = compound: CN(C)CCCOc1ccc(-c2ccc3ncc4c(c3c2)n(C2CCOCC2)c(=O)n4C)cn1 [AZD0156]; details: max 3 µM
Method in brief: as §1

AZD4320 = compound: CN(CC[C@H](CSC1=CC=CC=C1)NC2=C(C=C(C=C2)S(=O)(=O)NC(=O)C3=CC=C(C=C3)N4CCC(CC4)[C@H](C5=CC=CC=C5C6=CC=C(C=C6)Cl)O)S(=O)(=O)C(F)(F)F)CCO [AZD4320]; details: max 1 µM
Method in brief: as §1

Alisertib = compound: COc1cc(Nc2ncc3c(n2)-c2ccc(Cl)cc2C(c2c(F)cccc2OC)=NC3)ccc1C(=O)O [Alisertib]; details: max 10 µM
Method in brief: as §1

Etoposide = compound: COc1cc([C@@H]2c3cc4c(cc3[C@@H](O[C@@H]3O[C@@H]5CO[C@@H](C)O[C@H]5[C@H](O)[C@H]3O)[C@H]3COC(=O)[C@H]23)OCO4)cc(OC)c1O [Etoposide]; details: max 10 µM
Method in brief: as §1

Gefitinib = compound: COc1cc2ncnc(Nc3ccc(F)c(Cl)c3)c2cc1OCCCN1CCOCC1 [Gefitinib]; details: max 10 µM
Method in brief: as §1

Prexasertib = compound: COc1cccc(OCCCN)c1-c1cc(Nc2cnc(C#N)cn2)n[nH]1 [Prexasertib]; details: max 1 µM
Method in brief: as §1

Doxorubicin = compound: COc1cccc2c1C(=O)c1c(O)c3c(c(O)c1C2=O)C[C@@](O)(C(=O)CO)C[C@@H]3O[C@H]1C[C@H](N)[C@H](O)[C@H](C)O1 [Doxorubicin]; details: max 1 µM
Method in brief: as §1

AZD5153 = compound: COc1nnc2ccc(N3CCC(c4ccc(OCCN5CCN(C)C(=O)[C@H]5C)cc4)CC3)nn12 [AZD5153]; details: max 1 µM
Method in brief: as §1

Lapatinib = compound: CS(=O)(=O)CCNCc1ccc(-c2ccc3ncnc(Nc4ccc(OCc5cccc(F)c5)c(Cl)c4)c3c2)o1 [Lapatinib]; details: max 10 µM
Method in brief: as §1

AZD8186 = compound: C[C@@H](Nc1cc(F)cc(F)c1)c1cc(C(=O)N(C)C)cc2c(=O)cc(N3CCOCC3)oc12 [AZD8186]; details: max 10 µM
Method in brief: as §1

Crizotinib = compound: C[C@@H](Oc1cc(-c2cnn(C3CCNCC3)c2)cnc1N)c1c(Cl)ccc(F)c1Cl [Crizotinib]; details: max 10 µM
Method in brief: as §1

Savolitinib = compound: C[C@@H](c1ccc2nccn2c1)n1nnc2ncc(-c3cnn(C)c3)nc21 [Savolitinib]; details: max 1 µM
Method in brief: as §1

AZD6738 = compound: C[C@@H]1COCCN1C2=NC(=NC(=C2)C3(CC3)[S@](=N)(=O)C)C4=C5C=CNC5=NC=C4 [AZD6738]; details: max 10 µM
Method in brief: as §1

AZD5991 = compound: Cc1c2c(nn1C)CSCc1cc(n(C)n1)CSc1cc(c3ccccc3c1)OCCCc1c(C(=O)O)n(C)c3c-2c(Cl)ccc13 [AZD5991]; details: max 1 µM
Method in brief: as §1

AZD7648 = compound: Cc1cc2ncnn2cc1Nc1ncc2c(n1)n(C1CCOCC1)c(=O)n2C [AZD7648]; details: max 10 µM
Method in brief: as §1

Taselisib = compound: Cc1nc(-c2cn3c(n2)-c2ccc(-c4cnn(C(C)(C)C(N)=O)c4)cc2OCC3)n(C(C)C)n1 [Taselisib]; details: max 10 µM
Method in brief: as §1

Selumetinib = compound: Cn1cnc2c(F)c(Nc3ccc(Br)cc3Cl)c(C(=O)NOCCO)cc21 [Selumetinib]; details: max 10 µM
Method in brief: as §1

SRA737 = compound: N#Cc1cnc(Nc2cc(NC[C@H]3CNCCO3)c(C(F)(F)F)cn2)cn1 [SRA737]; details: max 10 µM
Method in brief: as §1

MK-2206 = compound: NC1(c2ccc(-c3nc4ccn5c(=O)[nH]nc5c4cc3-c3ccccc3)cc2)CCC1 [MK-2206]; details: max 10 µM
Method in brief: as §1

Gemcitabine = compound: Nc1ccn([C@@H]2O[C@H](CO)[C@@H](O)C2(F)F)c(=O)n1 [Gemcitabine]; details: max 0.3 µM
Method in brief: as §1

[1] = compound: O=C(Nc1ccc2[nH]nc(-c3ccncc3)c2c1)[C@@H]1CCN(CC(=O)N2CCN(c3ccc(-c4ncccn4)cc3)CC2)C1; details: max 5 µM
Method in brief: as §1

Olaparib = compound: O=C(c1cc(Cc2n[nH]c(=O)c3ccccc23)ccc1F)N1CCN(C(=O)C2CC2)CC1 [Olaparib]; details: max 10 µM
Method in brief: as §1

5-Fluorouracil = compound: O=c1[nH]cc(F)c(=O)[nH]1 [5-Fluorouracil]; details: max 20 µM
Method in brief: as §1

| Cell Line | IC50, cell viability 72 h (Carboplatin) | IC50, cell viability 72 h (AZD5363) | IC50, cell viability 72 h (AZD1775) | IC50, cell viability 72 h (Trametinib) | IC50, cell viability 72 h (Paclitaxel) | IC50, cell viability 72 h (Palbociclib) | IC50, cell viability 72 h (AZD1390) | IC50, cell viability 72 h (Venetoclax) | IC50, cell viability 72 h (Dasatinib) | IC50, cell viability 72 h (SG3199) | IC50, cell viability 72 h (AZD2811) | IC50, cell viability 72 h (SN-38) | IC50, cell viability 72 h (AZD0156) | IC50, cell viability 72 h (AZD4320) | IC50, cell viability 72 h (Alisertib) | IC50, cell viability 72 h (Etoposide) | IC50, cell viability 72 h (Gefitinib) | IC50, cell viability 72 h (Prexasertib) | IC50, cell viability 72 h (Doxorubicin) | IC50, cell viability 72 h (AZD5153) | IC50, cell viability 72 h (Lapatinib) | IC50, cell viability 72 h (AZD8186) | IC50, cell viability 72 h (Crizotinib) | IC50, cell viability 72 h (Savolitinib) | IC50, cell viability 72 h (AZD6738) | IC50, cell viability 72 h (AZD5991) | IC50, cell viability 72 h (AZD7648) | IC50, cell viability 72 h (Taselisib) | IC50, cell viability 72 h (Selumetinib) | IC50, cell viability 72 h (SRA737) | IC50, cell viability 72 h (MK-2206) | IC50, cell viability 72 h (Gemcitabine) | IC50, cell viability 72 h [1] | IC50, cell viability 72 h (Olaparib) | IC50, cell viability 72 h (5-Fluorouracil) |
| --- | --- | --- | --- | --- | --- | --- | --- | --- | --- | --- | --- | --- | --- | --- | --- | --- | --- | --- | --- | --- | --- | --- | --- | --- | --- | --- | --- | --- | --- | --- | --- | --- | --- | --- | --- |
| Caov-4 (Ovarian Carcinoma) | > 10000 nM | > 10000 nM | 816 nM | 108 nM | 545 nM | > 10000 nM | > 300 nM | > 1000 nM | > 2000 nM | > 1 nM | > 1000 nM | 11.6 nM | > 3000 nM | > 1000 nM | > 10000 nM | 6040 nM | > 10000 nM | 12.6 nM | 253 nM | 719 nM | > 10000 nM | > 10000 nM | > 10000 nM | > 1000 nM | 3190 nM | 993 nM | > 10000 nM | > 10000 nM | > 10000 nM | 4020 nM | 9350 nM | 78.5 nM | 3330 nM | > 10000 nM | > 20000 nM |
| D-263MG (Glioblastoma) | > 10000 nM | > 10000 nM | 2490 nM | > 1000 nM | 76.1 nM | > 10000 nM | > 300 nM | > 1000 nM | > 2000 nM | > 1 nM | > 1000 nM | 114 nM | > 3000 nM | > 1000 nM | 7080 nM | > 10000 nM | > 10000 nM | 125 nM | 858 nM | > 1000 nM | > 10000 nM | > 10000 nM | > 10000 nM | > 1000 nM | 7850 nM | > 1000 nM | > 10000 nM | > 10000 nM | > 10000 nM | > 10000 nM | > 10000 nM | > 300 nM | > 5000 nM | > 10000 nM | > 20000 nM |
| EFM-19 (Breast Carcinoma) | > 10000 nM | > 10000 nM | 2090 nM | > 1000 nM | 26.9 nM | > 10000 nM | > 300 nM | > 1000 nM | > 2000 nM | > 1 nM | > 1000 nM | 288 nM | > 3000 nM | > 1000 nM | > 10000 nM | > 10000 nM | > 10000 nM | > 1000 nM | > 1000 nM | > 1000 nM | > 10000 nM | > 10000 nM | > 10000 nM | > 1000 nM | > 10000 nM | > 1000 nM | > 10000 nM | 564 nM | > 10000 nM | > 10000 nM | > 10000 nM | > 300 nM | > 5000 nM | > 10000 nM | > 20000 nM |
| EoL-1-cell (Acute Myeloid Leukemia) | > 10000 nM | 3190 nM | 158 nM | 15.5 nM | 4.12 nM | 4640 nM | > 300 nM | 61.8 nM | 5.61 nM | > 1 nM | 9.92 nM | 5.99 nM | > 3000 nM | 8.51 nM | 42.8 nM | 157 nM | > 10000 nM | 4.87 nM | 69.1 nM | 41.3 nM | > 10000 nM | > 10000 nM | 2290 nM | > 1000 nM | 765 nM | 60.6 nM | > 10000 nM | 6190 nM | 1550 nM |  | 4050 nM | 6.7 nM | 506 nM | > 10000 nM | 3960 nM |
